Measurements from patent publication US20050215498A1, “Method for the protection of endothelial and epithclial cells during chemotherapy” (priority 2002, published 2005).
Where two headings read alike, the source gives them in different places.

Key:
[1] = test system: HMEC as target cells for allogeneic CTL; experiment: 51Cr release assay, lysis of HMEC by allogeneic PBMC / CD8+ CTL; format: cell-based, human
Description: Peripheral blood mononuclear cells (PBMC) were derived from heparinized (Novo Nordisk, Mainz, Germany) blood of healthy human volunteers or buffy coats from the Bavarian Red Cross according to a standard protocol using Ficoll hypaque (Pharmacia, Freiburg, Germany) density gradient centrifugation. Cells were then stimulated in a ratio of 1:1 and 2:1 with irradiated (20 Gy) HMEC for 7 days in the presence of Interleukin 2 (50 U/mL) and 10% human AB serum (Sigma, Deisenhofen, Germany). Alternatively, PBMC were selected for CD8+ T cells and natural killer (NK) cells using cell isolation kits according to the manufactuer's instructions (MACS™, Miltenyi Bio-tech, Bergisch-Gladbach, Germany) based on the deletion of non CD8+ and non NK cells, respectively. Stimulation of the selected cells was identical to that of whole PBMC cultures, except for NK cells which were stimulated for only 3 days.
T cell- or NK-cell mediated cytotoxicity was assessed according to a well established protocol,^23 using a 4h ^51Cr radioisotope assay. HMEC that had either been left untreated or incubated with F-Ara (10μg/mL) overnight were used as target cells, to be labeled 0.4 mCi Na2^51CrO4 for 2 hours. After 3 washing steps, target cells were adjusted to 10^4 cells/mL and coincubated with PBMC, CD8+ or NK effector cells at descending effector to target ratios for another 4 hours. Supernatants were transfered to dry scintillation plates and counted in a γ-counter (all from Canberra Packard, Darmstadt, Germany). Autologous (effector) B-Lymphoblastoid cell lines (B-LCL) and K562 as NK sensitive cells were taken as additional control targets. The percentage of specific lysis was calculated as: [(experimental release−spontaneous release)/(maximal release−spontaneous release)]×100. Spontaneous release in all experiments was always below 20%. […]

endothelial cells = experiment: Radiation induced endothelial cell death; format: cell-based; conditions: data not shown
Description: Since in many pre-transplant protocols fludarabine is used in combination with ionizing radiation it was important to test whether these two compounds would cooperate in affecting endothelial cells.

[2] = test system: MHC class I molecules on HMEC; experiment: Flow cytometric analysis of MHC class I on HMEC; format: cell-based, human; conditions: for induction of mean fluorescence intensity of MHC class I: 24 hours
Procedure: (§1) Cell surface expression of ICAM-1 (Becton Dickinson/Pharmingen, Heidelberg, Germany) and MHC class I (w6/32, hybridoma supernatant, ATCC, Manassas, Va., USA) molecules on HMEC was assessed by the indirect immunofluorescence technique and subsequent flow cytometry using the FACScan™ flow cytometer and the Cell-Quest™ analysis program (Becton Dickinson, Heidelberg, Germany). Endothelial cells were treated as given and after incubation harvested with trypsin/EDTA (Gibco), washed once in cold PBS/10% FCS and incubated 1 hour on ice with 5 μg/mL of anti-adhesion molecule MoAbs. Cells were washed again and incubated with a goat anti-mouse IgG-FITC conjugated antibody F(ab)2 fragment (Dako, Hamburg, Germany) for 45 minutes on ice. Cells were then washed in PBS/10% FCS and subjected to analysis. Viability of the cells was determined by concurrent propidium iodide (0.2 μg/mL, Sigma, Deisenhofen, Germany) staining. Omitting of the first antibody served as a negative control to detect unspecific fluorescence.
(§2) Since a proinflammatory activation of target cells is often associated with increased expression of major histocompatibility antigens (MHC) class I and II, we did further flow cytometric analyses for these antigens after incubation with F-Ara in various concentrations for 24 hours.

[3] = test system: ICAM-1 expression on HMEC; experiment: Flow cytometric analysis of ICAM-1 expression on HMEC; format: cell-based, human
Procedure: as §1
Based on previous observations that pretransplant conditioning not only damages, but also leads to proinflammatory activation of endothelial cells in terms of adhesion molecule induction,^15 we next investigated the expression of ICAM-1 under the influence of F-Ara. […] We next asked whether Defibrotide would also be functional as an antagonist of F-Ara in this experimental setting. HMEC were treated with F-Ara as given and incubated in the presence or absence of descending concentrations of Defibrotide.

[4] = test system: HaCaT human keratinocyte cell line; experiment: Flow cytometric apoptosis analysis in HaCaT; format: cell-based; conditions: Defibrotide alone, data not shown
Procedure: (§3) An established method for detecting apoptosis in human endothelial cells was performed as previously described^20 using flow cytometry (FACScan™ and CellQuest™ software, Becton Dickinson, Heidelberg, Germany). Endothelial and epithelial cells were either left untreated or incubated with F-Ara in descending concentrations (range: 10 μg/mL to 0.1 μg/mL) in the presence or absence of Defibrotide for 48 hours. Afterwards, cells were washed in PBS/10% FCS and stained with the necrosis detecting dye propidium iodide (PI, 0.2 μg/mL, Sigma, Deisenhofen, Germany). Apoptotic cells were identified by a PI-negative staining and by a characteristic side scatter image distinct from that of non-apoptotic cells. At least three experiments per cell type have been performed.
(§4) An alternative method for the detection of apoptosis used microscopic analysis of DNA fluorescence labeled cells. 1×10 ^5/plate endothelial cells were seeded in 35 mm petri dishes (Nunc, Wiesbaden, Germany). These cells were treated as given above and subsequently fixed with Methanol/Acetone (1:1) for 2 minutes, washed once in PBS and stained with 4,6-Diamidino-2-phenylindole (DAPI) (0.5 μg/mL, Sigma, Deisenhofen, Germany), dissolved in 20% Glycerin/PBS. […]
(§5) Skin, the gastrointestinal tract (GIT) and most likely the lung are among the primary targets of GvHD. […] Again, the protective potential of Defibrotide (100 μg/mL) was assessed.

[5] = test system: PBMC from normal human blood donors; experiment: Apoptosis assay (SSC-image) with PBMC; format: cell-based
Procedure: (§6) F-Ara: 10 μg/mL. D: 100 μg/mL. A: Propidium iodide staining of primary acute myeloid leukemia (AML) cells derived from a patient in blast crisis (70% blasts of total PBMC count). Results are given in mean % vitality of three independent experiments. *: p=0.008 of Control- versus F-Ara-treated AML cells. B: Flow cytometric analysis of the SSC-image of PI-negative PBMC. Shown is one representative out of five independent experiments with different blood donors.
as §3, with “performed. […]” for “performed.”

[6] = test system: A549 alveolar epithelial cells; experiment: Flow cytometric apoptosis analysis in A549; format: cell-based, human; conditions: Defibrotide alone, data not shown
Procedure: as §3, §4, §5

[7] = test system: primary acute myeloid leukemia (AML) cells; experiment: Propidium iodide staining (vitality) of primary AML cells; format: cell-based, human; conditions: 48 hours
Procedure: as §6
Next to its desirable protective capacity for endothelial and epithelial cells against F-Ara induced apoptosis it was important to investigate whether Defibrotide would also interfere with the anti-leukaemic properties of F-Ara. To address this question, primary peripheral blood derived acute myeloid leukaemic (AML) cells with a blast amount of 70% were thawed, kept in culture for 24 hours and subsequently treated with F-Ara in the presence or absence of Defibrotide for another 48 hours. […] However, F-Ara induced cell death in up to 80% of the cells. […] This could be observed after as early as 24 hours of incubation. […] We next asked whether Defibrotide might modulate the effect of F-Ara against normal haematopoetic cells and performed apoptosis assays (SSC-image) with PBMC from normal human blood donors. […]

[8] = test system: human microvascular endothelial cells (HMEC); format: cell-based
Procedure: All cell culture reagents have been purchased by Gibco BRL (Karlsruhe, Germany) unless stated otherwise. 2-Fluoroadenine 9-beta-D-arabinofuranoside (F-Ara) was obtained from Sigma, Deisenhofen, Germany, Defibrotide vials were obtained from Prociclide™, Crinos, Como, Italy.
as §3
An alternative method for the detection of apoptosis used microscopic analysis of DNA fluorescence labeled cells. 1×10 ^5/plate endothelial cells were seeded in 35 mm petri dishes (Nunc, Wiesbaden, Germany). These cells were treated as given above and subsequently fixed with Methanol/Acetone (1:1) for 2 minutes, washed once in PBS and stained with 4,6-Diamidino-2-phenylindole (DAPI) (0.5 μg/mL, Sigma, Deisenhofen, Germany), dissolved in 20% Glycerin/PBS. Samples were mounted and subjected to microscopic analysis.
In order to assess the influence of F-Ara on the viability of cultured human endothelial cells, HMEC were incubated with descending pharmacologically relevant concentrations (10 μg/mL to 0.1 μg/mL) of 2-Fluoroadenine 9-beta-D-arabinofuranoside as the metabolized form of fludarabine. […] After 48 hours of incubation HMEC were subjected to apoptosis assays using the detection of cellular granularity of propidium iodide negative cells (side scatter (SSC) image in flow cytometry) and microscopic analyses of DAPI-stained cells, respectively.
In order to exclude unspecific artifical extracellular interaction of F-Ara and Defibrotide in vitro HMEC were pretreated with Defibrotide for 1 hour and subsequently, after 3 washing steps, incubated with F-Ara for another 48 hours and vice versa.

[9] = test system: HMEC as target cells for allogeneic NK cells; experiment: 51Cr release assay, lysis of HMEC by allogeneic NK cells; format: cell-based, human; conditions: F-Ara 10 μg/mL, 24 hours
Procedure: T cell- or NK-cell mediated cytotoxicity was assessed according to a well established protocol,^23 using a 4h ^51Cr radioisotope assay. HMEC that had either been left untreated or incubated with F-Ara (10μg/mL) overnight were used as target cells, to be labeled 0.4 mCi Na2^51CrO4 for 2 hours. After 3 washing steps, target cells were adjusted to 10^4 cells/mL and coincubated with PBMC, CD8+ or NK effector cells at descending effector to target ratios for another 4 hours. Supernatants were transfered to dry scintillation plates and counted in a γ-counter (all from Canberra Packard, Darmstadt, Germany). […] The percentage of specific lysis was calculated as: [(experimental release−spontaneous release)/(maximal release−spontaneous release)]×100.

[10] = test system: BEAS-2B bronchial epithelial cell line and primary bronchial epithelial cells; experiment: Flow cytometric apoptosis analysis in bronchial epithelial cells; format: cell-based; conditions: F-Ara 10 μg/mL, 48 hours
Procedure: as §3
(§7) Skin, the gastrointestinal tract (GIT) and most likely the lung are among the primary targets of GvHD. Therefore, it was reasonable to test the influence of F-Ara on cell lines derived from these organs. Cells from keratinocyte (HaCaT), GIT (SW 480), alveolar (A549) and bronchial epithelial (BEAS-2B) cell lines as well as primary bronchial epithelial cells were incubated with F-Ara (10 μg/mL) as given for FIGS. 1 and 2 and assayed in flow cytometric apoptosis analyses 48 hours post treatment. […] Again, the protective potential of Defibrotide (100 μg/mL) was assessed.

[11] = test system: SW 480 gut epithelial cell line; experiment: Flow cytometric apoptosis analysis in SW 480; format: cell-based; conditions: F-Ara 10 μg/mL, 48 hours
Procedure: as §3, §7

MHC class II on HMEC = conditions: F-Ara various concentrations, 24 hours, data not shown
Procedure: as §1, §2

[12] = manufacturers's instructions, cited from earlier work

## Defibrotide
[1]; pretreatment of target HMEC with F-Ara and Defibrotide (F-Ara+D)
  specific lysis of HMEC by CD8+ CTL: downregulated specific lysis even below control levels
Endothelial cells
  protection against radiation induced endothelial cell damage: not protective
[2]; data not shown
  MHC class I molecules, F-Ara versus F-Ara+D treated HMEC: significant downregulation
[3]; Defibrotide 100 μg/mL and 10 μg/mL with F-Ara 10 μg/mL
  F-Ara induced ICAM-1 expression: antagonized
[3]; Defibrotide alone, every concentration tested, data not shown
  ICAM-1 expression: remained unchanged
[4]
  number of apoptotic cells: did not influence the number of apoptotic cells
[5]; F-Ara 10 μg/mL with Defibrotide 100 μg/mL
  % apoptotic cells: 43.1%
[6]
  number of apoptotic cells: did not influence the number of apoptotic cells
[7]; Defibrotide 100 μg/mL with F-Ara 10 μg/mL
  protection of AML cells from F-Ara mediated toxicity: not able to protect
[8]; Defibrotide 100 to 0.1 μg/mL with F-Ara 10 μg/mL, 48 hours
  protection of F-Ara induced cell death: dose-dependent protection
[8]; Defibrotide alone, 48 hours
  endothelial cell viability: did not influence endothelial cell viability
[8]; pretreatment with Defibrotide 1 hour, washing, then F-Ara 48 hours
  protection from F-Ara induced apoptosis: sufficient to protect cells
[8]; pretreatment with F-Ara 1 hour, subsequent incubation with Defibrotide
  endothelial programmed cell death: did not lead to endothelial programmed cell death

## Nc1nc(F)nc2c1ncn2[C@@H]1O[C@H](CO)[C@@H](O)[C@@H]1O [F-Ara, 2-fluoro-9-β-D-arabinofuranosyladenine]
[1]; CD8+ selected effectors
  lysis of F-Ara-treated HMEC by CD8+ CTL versus control HMEC: significantly higher
[1]; F-Ara (1 μg/mL) treated targets, all E/T ratios tested
  antigenicity of HMEC towards allogeneic PBMC: increased the antigenicity
[9]
  allogenicity of HMEC towards NK cells: significantly downregulated
[10]
  apoptosis induction: resistant
[11]
  apoptosis induction: resistant
Endothelial cells; combination with ionizing radiation
  enhancement of radiation induced cell death: could not find any enhancement
[2]; F-Ara 5 μg/mL
  induction of mean fluorescence intensity of MHC class I: 1.3 fold
[2]; F-Ara 10 μg/mL
  induction of mean fluorescence intensity of MHC class I: 1.5 fold
[3]; 24 hours
  concentrations effective in inducing ICAM-1: ≥ 1 µg/mL
[3]; F-Ara, 24 hours of incubation
  ICAM-1 expression on HMEC: significantly enhances expression
MHC class II on HMEC
  MHC class II expression: remained unchanged
[5]; F-Ara 10 μg/mL, untreated control 5.1%
  % apoptotic cells: 40.1%
[7]; F-Ara 10 μg/mL, almost 50% died spontaneously
  cell death of AML cells: up to 80%
[8]; F-Ara 1 μg/mL, 48 hours
  apoptosis in HMEC: no longer effective
[8]; F-Ara 10 and 5 μg/mL, 48 hours
  apoptosis in HMEC: causes apoptosis
[8]; after 24h, data not shown
  apoptosis in HMEC: already detectable

## Nc1nc(F)nc2c1ncn2[C@@H]1O[C@H](COP(=O)(O)OP(=O)(O)OP(=O)(O)O)[C@@H](O)[C@@H]1O [fludarabine triphosphate]
[12]; concentration representing 20 μM
  median intracellular level in target cells: 5.8 µg/mL
[12]
  median intracellular level in target cells: 20 µM
